Assays:
Type in all cases: biochemical
RPS6KA1 (RSX1) = RPS6KA1 (RSX1) (Homo sapiens (Human), UniProt Q15418); assay: Kinase panel Z'-LYTE/Adapta SelectScreen; details: 100 nM in 1% DMSO
Method: (§1) The inhibitory activity of the compounds on a panel of kinases including, inter alia, AXL and FLT3 was evaluated by Thermo Fisher Scientific using Z′-LYTE® and Adapta® Select Screen technology.
(§2) The fluorescence-based biochemical test uses coupled enzymes and is based on the difference in sensitivity of the phosphorylated and non-phosphorylated peptides to proteolytic cleavage. The peptide substrate is labeled with 2 fluorophores—one at each end—allowing fluorescence transfer (FRET).
(§3) Compounds 1, 2 and 3 are tested in wells at the final concentration of 100 nM in 1% DMSO.

TYK2 = TYK2 (Homo sapiens (Human), UniProt P29597); assay: Kinase panel Z'-LYTE/Adapta SelectScreen; details: 100 nM in 1% DMSO
Method: as §1, §2, §3

PTK2 (FAK) = PTK2 (FAK) (Homo sapiens (Human), UniProt Q05397); assay: Kinase panel Z'-LYTE/Adapta SelectScreen; details: 100 nM in 1% DMSO
Method: as §1, §2, §3

ZAP70 = ZAP70 (Homo sapiens (Human), UniProt P43403); assay: Kinase panel Z'-LYTE/Adapta SelectScreen; details: 100 nM in 1% DMSO
Method: as §1, §2, §3

FLT4 (VEGFR3) = FLT4 (VEGFR3) (Homo sapiens (Human), UniProt P35916); assay: Kinase panel Z'-LYTE/Adapta SelectScreen; details: 100 nM in 1% DMSO
Method: as §1, §2, §3

MET (cMet) = MET (cMet) (Homo sapiens (Human), UniProt P08581); assay: Kinase panel Z'-LYTE/Adapta SelectScreen; details: 100 nM in 1% DMSO
Method: as §1, §2, §3

JAK2 = JAK2 (Homo sapiens (Human), UniProt O60674); assay: Kinase panel Z'-LYTE/Adapta SelectScreen; details: 100 nM in 1% DMSO
Method: as §1, §2, §3

AURKB (Aurora B) = AURKB (Aurora B) (Homo sapiens (Human), UniProt Q96GD4); assay: Kinase panel Z'-LYTE/Adapta SelectScreen; details: 100 nM in 1% DMSO
Method: as §1, §2, §3

FLT1 (VEGFR1) = FLT1 (VEGFR1) (Homo sapiens (Human), UniProt P17948); assay: Kinase panel Z'-LYTE/Adapta SelectScreen; details: 100 nM in 1% DMSO
Method: as §1, §2, §3

TYRO3 (RSE) = TYRO3 (RSE) (Homo sapiens (Human), UniProt Q06418); assay: Kinase panel Z'-LYTE/Adapta SelectScreen; details: 100 nM in 1% DMSO
Method: as §1, §2, §3

ROCK2 = ROCK2 (Homo sapiens (Human), UniProt O75116); assay: Kinase panel Z'-LYTE/Adapta SelectScreen; details: 100 nM in 1% DMSO
Method: as §1, §2, §3

BTK = BTK (Homo sapiens (Human), UniProt Q06187); assay: Kinase panel Z'-LYTE/Adapta SelectScreen; details: 100 nM in 1% DMSO
Method: as §1, §2, §3

NUK1 (ARK5) = NUK1 (ARK5) (Homo sapiens (Human), UniProt O60285); assay: Kinase panel Z'-LYTE/Adapta SelectScreen; details: 100 nM in 1% DMSO
Method: as §1, §2, §3

NTRK1 (TRKA) = NTRK1 (TRKA) (Homo sapiens (Human), UniProt P04629); assay: Kinase panel Z'-LYTE/Adapta SelectScreen; details: 100 nM in 1% DMSO
Method: as §1, §2, §3

MAPK1 (ERK2) = MAPK1 (ERK2) (Homo sapiens (Human), UniProt P28482); assay: Kinase panel Z'-LYTE/Adapta SelectScreen; details: 100 nM in 1% DMSO
Method: as §1, §2, §3

CSF1R (FMS) = CSF1R (FMS) (Homo sapiens (Human), UniProt P07333); assay: Kinase panel Z'-LYTE/Adapta SelectScreen; details: 100 nM in 1% DMSO
Method: as §1, §2, §3

NTRK2 (TRKB) = NTRK2 (TRKB) (Homo sapiens (Human), UniProt Q16620); assay: Kinase panel Z'-LYTE/Adapta SelectScreen; details: 100 nM in 1% DMSO
Method: as §1, §2, §3

KDR (VEGFR2) = KDR (VEGFR2) (Homo sapiens (Human), UniProt P35968); assay: Kinase panel Z'-LYTE/Adapta SelectScreen; details: 100 nM in 1% DMSO
Method: as §1, §2, §3

PDGFRB (PDGFR beta) = PDGFRB (PDGFR beta) (Homo sapiens (Human), UniProt P09619); assay: Kinase panel Z'-LYTE/Adapta SelectScreen; details: 100 nM in 1% DMSO
Method: as §1, §2, §3

PDGFRA (PDGFR alpha) = PDGFRA (PDGFR alpha) (Homo sapiens (Human), UniProt P16234); assay: Kinase panel Z'-LYTE/Adapta SelectScreen; details: 100 nM in 1% DMSO
Method: as §1, §2, §3

JAK3 = JAK3 (Homo sapiens (Human), UniProt P52333); assay: Kinase panel Z'-LYTE/Adapta SelectScreen; details: 100 nM in 1% DMSO
Method: as §1, §2, §3

FGFR1 = FGFR1 (Homo sapiens (Human), UniProt P11362); assay: Kinase panel Z'-LYTE/Adapta SelectScreen; details: 100 nM in 1% DMSO
Method: as §1, §2, §3

SRC = SRC (Homo sapiens (Human), UniProt P12931); assay: Kinase panel Z'-LYTE/Adapta SelectScreen; details: 100 nM in 1% DMSO
Method: as §1, §2, §3

MERTK (cMER) = MERTK (cMER) (Homo sapiens (Human), UniProt Q12866); assay: Kinase panel Z'-LYTE/Adapta SelectScreen; details: 100 nM in 1% DMSO
Method: as §1, §2, §3

SYK = SYK (Homo sapiens (Human), UniProt P43405); assay: Kinase panel Z'-LYTE/Adapta SelectScreen; details: 100 nM in 1% DMSO
Method: as §1, §2, §3

ABL1 = ABL1 (Homo sapiens (Human), UniProt P00519); assay: Kinase panel Z'-LYTE/Adapta SelectScreen; details: 100 nM in 1% DMSO
Method: as §1, §2, §3

FLT3 = FLT3 (Homo sapiens (Human), UniProt P36888); assay: IC50 determination on kinase FLT3 (SelectScreen); details: 10 concentrations between 100 nM and 0.00495 nM
Method: FIG. 2: Determination of the IC50 of compounds 1, 2 and 3 with respect to the inhibition of the kinase Axl and of the kinase FLT3. 10 concentrations of the compound were prepared by serial dilutions. The compounds are screened in DMSO at 1% final. The kinases were diluted in a concentrated concentration twice in kinase buffer. All the ATP solutions were diluted in a 4-fold concentrated working concentration (50 mM HEPES pH 7.5, 0.01% BRIJ-35, 10 mM MgCl2, 1 mM EGTA). Each compound was incubated at 10 concentrations between 100 nM and 0.00495 nM in order to calculate the IC50. The IC50 are indicated: a) results of compound 1; b) results of compound 2; c) results of compound 3.
as §1, §2
To calculate the IC50 inhibition of Axl and FLT3 by the compounds of the invention, 10 concentrations of each compound 1, 2 and 3 were prepared by 1/3 serial dilutions from the starting concentration. The Axl or FLT3 kinases were diluted at a two-fold concentration in kinase buffer. All the ATP solutions are diluted in a 4-fold working concentration (50 mM HEPES PH 7.5, 0.01% BRIJ-35, 10 mM MgCl2, 1 mM EGTA).
Each compound is incubated at 10 concentrations between 100 nM and 0.00495 nM in order to calculate the IC50.

Sequence of BTK (Q06187 whole entry): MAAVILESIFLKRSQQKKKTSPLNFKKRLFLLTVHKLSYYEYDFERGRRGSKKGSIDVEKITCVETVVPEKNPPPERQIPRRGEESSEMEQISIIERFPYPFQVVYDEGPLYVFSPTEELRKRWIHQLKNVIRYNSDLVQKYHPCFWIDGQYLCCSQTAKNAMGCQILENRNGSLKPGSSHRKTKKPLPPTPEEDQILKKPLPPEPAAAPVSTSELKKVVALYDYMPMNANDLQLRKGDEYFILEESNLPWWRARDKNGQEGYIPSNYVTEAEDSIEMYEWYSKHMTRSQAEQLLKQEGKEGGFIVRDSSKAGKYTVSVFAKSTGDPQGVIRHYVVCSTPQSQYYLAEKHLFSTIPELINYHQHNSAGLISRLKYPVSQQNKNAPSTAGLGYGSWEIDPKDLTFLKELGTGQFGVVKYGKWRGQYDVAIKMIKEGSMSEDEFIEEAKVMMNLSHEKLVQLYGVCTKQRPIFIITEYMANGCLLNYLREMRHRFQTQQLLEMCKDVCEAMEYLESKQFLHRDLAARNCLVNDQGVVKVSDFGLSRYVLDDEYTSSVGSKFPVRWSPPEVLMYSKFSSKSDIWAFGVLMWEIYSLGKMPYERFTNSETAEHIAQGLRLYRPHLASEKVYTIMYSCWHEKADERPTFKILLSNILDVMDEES
Sequence of TYK2 (P29597 whole entry): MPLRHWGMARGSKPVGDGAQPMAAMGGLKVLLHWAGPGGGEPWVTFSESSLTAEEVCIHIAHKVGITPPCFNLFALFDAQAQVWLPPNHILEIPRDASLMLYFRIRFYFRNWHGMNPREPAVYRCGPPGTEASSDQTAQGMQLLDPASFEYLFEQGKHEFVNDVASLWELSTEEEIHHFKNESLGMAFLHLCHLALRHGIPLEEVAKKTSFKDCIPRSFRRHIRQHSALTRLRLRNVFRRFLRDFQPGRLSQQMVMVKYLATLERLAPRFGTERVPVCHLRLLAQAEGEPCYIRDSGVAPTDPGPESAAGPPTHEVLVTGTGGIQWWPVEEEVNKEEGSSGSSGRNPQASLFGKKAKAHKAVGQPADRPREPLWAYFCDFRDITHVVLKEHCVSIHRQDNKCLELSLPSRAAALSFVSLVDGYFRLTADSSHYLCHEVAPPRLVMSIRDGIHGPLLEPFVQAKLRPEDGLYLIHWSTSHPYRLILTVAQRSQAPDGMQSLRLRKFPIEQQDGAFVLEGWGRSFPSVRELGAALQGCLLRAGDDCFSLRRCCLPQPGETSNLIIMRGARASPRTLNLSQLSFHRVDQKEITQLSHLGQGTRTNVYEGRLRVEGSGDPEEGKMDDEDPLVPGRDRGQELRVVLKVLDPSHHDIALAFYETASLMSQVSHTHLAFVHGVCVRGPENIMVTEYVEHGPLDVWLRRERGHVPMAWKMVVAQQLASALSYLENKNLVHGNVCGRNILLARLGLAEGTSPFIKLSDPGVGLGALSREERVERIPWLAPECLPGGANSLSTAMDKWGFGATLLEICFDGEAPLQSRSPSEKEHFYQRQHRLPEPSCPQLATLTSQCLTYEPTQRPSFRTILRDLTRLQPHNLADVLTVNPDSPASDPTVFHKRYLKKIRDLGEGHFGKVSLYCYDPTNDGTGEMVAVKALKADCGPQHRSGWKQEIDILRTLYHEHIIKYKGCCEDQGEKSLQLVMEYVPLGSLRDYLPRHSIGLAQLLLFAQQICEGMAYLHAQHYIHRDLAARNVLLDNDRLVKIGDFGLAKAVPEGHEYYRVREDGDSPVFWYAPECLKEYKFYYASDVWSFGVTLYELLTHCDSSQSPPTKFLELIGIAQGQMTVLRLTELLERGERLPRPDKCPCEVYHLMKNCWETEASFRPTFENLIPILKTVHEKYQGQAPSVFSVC
Sequence of CSF1R (FMS) (P07333 20-972): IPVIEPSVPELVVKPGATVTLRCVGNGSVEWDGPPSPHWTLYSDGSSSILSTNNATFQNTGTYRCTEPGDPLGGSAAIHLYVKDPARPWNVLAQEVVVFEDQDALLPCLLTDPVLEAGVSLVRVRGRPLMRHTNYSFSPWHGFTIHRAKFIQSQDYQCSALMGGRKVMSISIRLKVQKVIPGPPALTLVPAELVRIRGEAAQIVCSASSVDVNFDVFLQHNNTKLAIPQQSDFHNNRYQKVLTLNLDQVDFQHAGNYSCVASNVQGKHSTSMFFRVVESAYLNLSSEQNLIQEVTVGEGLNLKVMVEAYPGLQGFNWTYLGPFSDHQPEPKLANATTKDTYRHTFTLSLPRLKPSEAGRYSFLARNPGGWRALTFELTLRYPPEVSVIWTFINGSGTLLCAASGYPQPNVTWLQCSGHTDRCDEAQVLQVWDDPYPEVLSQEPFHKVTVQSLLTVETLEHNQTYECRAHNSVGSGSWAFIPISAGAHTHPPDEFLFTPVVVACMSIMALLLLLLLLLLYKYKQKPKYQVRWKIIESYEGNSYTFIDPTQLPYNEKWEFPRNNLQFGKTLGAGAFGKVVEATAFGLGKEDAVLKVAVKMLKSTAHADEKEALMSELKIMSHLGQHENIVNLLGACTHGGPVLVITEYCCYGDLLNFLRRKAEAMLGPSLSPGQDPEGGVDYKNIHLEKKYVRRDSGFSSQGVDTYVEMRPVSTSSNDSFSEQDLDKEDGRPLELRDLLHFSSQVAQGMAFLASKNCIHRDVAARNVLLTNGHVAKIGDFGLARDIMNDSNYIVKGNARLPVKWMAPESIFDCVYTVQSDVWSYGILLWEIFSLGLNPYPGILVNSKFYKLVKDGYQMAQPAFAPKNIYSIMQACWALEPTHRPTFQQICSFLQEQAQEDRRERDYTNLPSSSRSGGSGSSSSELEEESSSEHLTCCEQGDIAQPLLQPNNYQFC
Sequence of FLT1 (VEGFR1) (P17948 27-1338): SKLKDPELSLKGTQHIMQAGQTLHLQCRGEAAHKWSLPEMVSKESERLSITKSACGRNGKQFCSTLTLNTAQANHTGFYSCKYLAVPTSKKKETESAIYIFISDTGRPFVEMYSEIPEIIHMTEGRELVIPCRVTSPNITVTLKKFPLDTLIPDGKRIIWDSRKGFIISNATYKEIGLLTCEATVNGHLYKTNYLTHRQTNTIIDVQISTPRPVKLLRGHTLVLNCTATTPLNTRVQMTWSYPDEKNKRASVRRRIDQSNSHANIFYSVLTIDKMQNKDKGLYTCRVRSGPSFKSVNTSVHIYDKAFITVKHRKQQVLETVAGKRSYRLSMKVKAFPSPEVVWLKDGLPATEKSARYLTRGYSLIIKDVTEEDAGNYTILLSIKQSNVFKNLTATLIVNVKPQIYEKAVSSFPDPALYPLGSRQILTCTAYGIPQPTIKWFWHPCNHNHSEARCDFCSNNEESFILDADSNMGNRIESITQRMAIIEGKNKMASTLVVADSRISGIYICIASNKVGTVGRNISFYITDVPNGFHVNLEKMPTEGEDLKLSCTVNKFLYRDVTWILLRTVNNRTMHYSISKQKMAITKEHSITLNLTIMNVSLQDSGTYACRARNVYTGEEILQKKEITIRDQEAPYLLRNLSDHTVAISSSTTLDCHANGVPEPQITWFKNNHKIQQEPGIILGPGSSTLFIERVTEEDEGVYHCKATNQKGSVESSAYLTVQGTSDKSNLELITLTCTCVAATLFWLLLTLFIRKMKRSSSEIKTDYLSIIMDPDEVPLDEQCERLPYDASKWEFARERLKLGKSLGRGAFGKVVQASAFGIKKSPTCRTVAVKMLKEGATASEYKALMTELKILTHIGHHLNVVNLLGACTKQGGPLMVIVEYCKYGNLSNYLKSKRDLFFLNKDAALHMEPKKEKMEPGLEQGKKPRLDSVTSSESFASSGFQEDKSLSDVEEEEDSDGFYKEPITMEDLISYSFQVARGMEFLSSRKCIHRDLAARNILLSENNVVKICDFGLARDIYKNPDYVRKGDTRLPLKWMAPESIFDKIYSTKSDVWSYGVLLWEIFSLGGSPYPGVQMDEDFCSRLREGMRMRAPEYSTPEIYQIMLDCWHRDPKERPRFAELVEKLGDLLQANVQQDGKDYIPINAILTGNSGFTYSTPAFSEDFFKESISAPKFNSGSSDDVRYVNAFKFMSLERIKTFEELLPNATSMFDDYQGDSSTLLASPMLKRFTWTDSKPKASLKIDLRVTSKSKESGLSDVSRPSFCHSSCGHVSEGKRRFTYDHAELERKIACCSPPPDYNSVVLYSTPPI
Sequence of FLT3 (P36888 27-993): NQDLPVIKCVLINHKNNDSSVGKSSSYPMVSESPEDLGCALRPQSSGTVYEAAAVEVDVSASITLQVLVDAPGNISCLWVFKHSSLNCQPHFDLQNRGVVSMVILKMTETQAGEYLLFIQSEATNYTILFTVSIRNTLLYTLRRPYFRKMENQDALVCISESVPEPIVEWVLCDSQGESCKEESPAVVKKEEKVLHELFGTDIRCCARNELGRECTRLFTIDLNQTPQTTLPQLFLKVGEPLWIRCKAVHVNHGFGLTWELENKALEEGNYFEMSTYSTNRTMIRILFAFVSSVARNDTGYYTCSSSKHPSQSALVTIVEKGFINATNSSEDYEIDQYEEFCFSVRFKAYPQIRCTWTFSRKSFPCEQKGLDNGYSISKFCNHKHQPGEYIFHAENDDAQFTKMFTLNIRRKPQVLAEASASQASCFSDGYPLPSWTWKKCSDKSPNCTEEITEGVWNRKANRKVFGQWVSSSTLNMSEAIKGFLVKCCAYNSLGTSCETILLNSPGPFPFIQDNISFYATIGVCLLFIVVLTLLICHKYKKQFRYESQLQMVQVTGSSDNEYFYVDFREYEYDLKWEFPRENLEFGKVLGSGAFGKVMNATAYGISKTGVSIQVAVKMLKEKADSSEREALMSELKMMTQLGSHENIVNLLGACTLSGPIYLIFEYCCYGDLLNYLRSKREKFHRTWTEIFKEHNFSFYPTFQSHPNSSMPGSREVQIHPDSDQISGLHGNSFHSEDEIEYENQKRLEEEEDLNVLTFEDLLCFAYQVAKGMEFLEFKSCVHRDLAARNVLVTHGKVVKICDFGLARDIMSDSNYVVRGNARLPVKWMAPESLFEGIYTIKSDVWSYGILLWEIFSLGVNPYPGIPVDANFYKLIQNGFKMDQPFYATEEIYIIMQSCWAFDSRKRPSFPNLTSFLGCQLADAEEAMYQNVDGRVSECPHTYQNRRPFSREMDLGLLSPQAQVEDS

Compound	Percentage inhibition RPS6KA1 (RSX1) (RPS6KA1 (RSX1)) [%]	Percentage inhibition TYK2 (TYK2) [%]	Percentage inhibition PTK2 (FAK) (PTK2 (FAK)) [%]	Percentage inhibition ZAP70 (ZAP70) [%]	Percentage inhibition FLT4 (VEGFR3) (FLT4 (VEGFR3)) [%]	Percentage inhibition MET (cMet) (MET (cMet)) [%]	Percentage inhibition JAK2 (JAK2) [%]	Percentage inhibition AURKB (Aurora B) (AURKB (Aurora B)) [%]	Percentage inhibition FLT1 (VEGFR1) (FLT1 (VEGFR1)) [%]	Percentage inhibition TYRO3 (RSE) (TYRO3 (RSE)) [%]	Percentage inhibition ROCK2 (ROCK2) [%]	Percentage inhibition BTK (BTK) [%]	Percentage inhibition NUK1 (ARK5) (NUK1 (ARK5)) [%]	Percentage inhibition NTRK1 (TRKA) (NTRK1 (TRKA)) [%]	Percentage inhibition MAPK1 (ERK2) (MAPK1 (ERK2)) [%]	Percentage inhibition CSF1R (FMS) (CSF1R (FMS)) [%]	Percentage inhibition NTRK2 (TRKB) (NTRK2 (TRKB)) [%]	Percentage inhibition KDR (VEGFR2) (KDR (VEGFR2)) [%]	Percentage inhibition PDGFRB (PDGFR beta) (PDGFRB (PDGFR beta)) [%]	Percentage inhibition PDGFRA (PDGFR alpha) (PDGFRA (PDGFR alpha)) [%]	other results
CN1CCN(Cc2cccc(-c3cnc4[nH]cc(-c5cc(CNCc6ccccc6)ccc5F)c4c3)c2)CC1 [Compound 2]	16	5	33	4	33	92	23	20	19	67	5	10	16	96	6	41	103	68	30	31	Percentage inhibition JAK3 (JAK3): 18%; Percentage inhibition FGFR1 (FGFR1): 20%; Percentage inhibition SRC (SRC): 16%; Percentage inhibition MERTK (cMER) (MERTK (cMER)): 96%; Percentage inhibition SYK (SYK): 11%; Percentage inhibition ABL1 (ABL1): 16%; IC50 (FLT3): 2.33 nM
CN1CCN(Cc2cccc(-c3cnc4[nH]cc(-c5cc(CNCCc6ccc(O)cc6)ccc5F)c4c3)c2)CC1 [Compound 1]	38	5	22	4	64	15	19	41	53	51	16	12	74	53	11	62	61	85	37	57	Percentage inhibition JAK3 (JAK3): 42%; Percentage inhibition FGFR1 (FGFR1): 43%; Percentage inhibition SRC (SRC): 19%; Percentage inhibition MERTK (cMER) (MERTK (cMER)): 98%; Percentage inhibition SYK (SYK): 4%; Percentage inhibition ABL1 (ABL1): 38%; IC50 (FLT3): 2.5 nM
CN1CCN(Cc2cccc(-c3cnc4[nH]cc(-c5cc(NC(=O)Nc6ccccc6)ccc5F)c4c3)c2)CC1 [Compound 3]	41	7	24	5	37	16	13	38	19	19	9	10	14	69	6	26	94	55	19	21	Percentage inhibition JAK3 (JAK3): 13%; Percentage inhibition FGFR1 (FGFR1): 27%; Percentage inhibition SRC (SRC): 10%; Percentage inhibition MERTK (cMER) (MERTK (cMER)): 75%; Percentage inhibition SYK (SYK): 8%; Percentage inhibition ABL1 (ABL1): 22%; IC50 (FLT3): 48.2 nM
